Several values for one entry are separate records, joined by “and”; a condition that tells them apart may be missing. Equal values may be shown once.
Key:
[1] = test system: free living nematodes in soil; conditions: 24 hour exposure; cited from earlier work
[2] = test system: citrus nematode; conditions: 0.5 hour exposure, same concentration; cited from earlier work
[3] = test system: Root-Knot larvae (J2); test: Effect of nematicides (Oxamyl, Thiodicarb) on Root-Knot larvae (J2) in vitro; parameters: species or system M. incognita; conditions: for Root-Knot larvae (J2) Alive / Root-Knot larvae (J2) Dead: room temperature, one replicate per line; for Root-Knot larvae (J2) Alive / Root-Knot larvae (J2) Dead / Root-Knot larvae (J2) Alive, non-mobile: 2 days; for Root-Knot larvae (J2) Alive, non-mobile: alive larvae given as non-mobile
Description: M. incognita eggs collected from tomato cultures by NaOC1 extraction (Hussey and Barker, 1973). Briefly, six to twelve week old infected tomato roots were cut into 1-2 segment. Root segments were shacked vigorously in 200 ml of a 0.5% Na O Cl solution for 4 min. Then, the Na O Cl solution was passed quickly through a 200-mesh (75-μm), nested over a 500-mesh sieve to collect freed eggs. The a 500-mesh sieve with eggs was quickly placed under a stream of cold water to remove residual Na O cl and rinsed several times. About 50 ml queous suspension of eggs was collected and number of eggs per unit volume will be counted. The egg suspension was allowed to sit at room temperature for 4 days. The hatching juveniles were collected and used in the subsequent experiments.
Determine the efficient concentration of nematicides (Oxamyl and Thidiocarb) that kill or suppress Root-Knot Larvae.
M. incognita eggs collected from tomato cultures by NaOC1 extraction (Hussey & Barker, Plant Disease Reporter. 57:1025-1028 (1973)). Egg suspension was incubated at room temperature until larvae were hatched (4-5 days). The juveniles (J2) were counted and evaluated for activity/mobility for the duration of the study. Four different concentrations of both nematicides (Oxamyl and Thiodicarb) were used to assess their efficacy in killing the nematodes. These were untreated control, 200 ug, 1 mg, 2 mg, and 10 mg. Three replicates of the each concentration were mixed with J2 suspensions and incubated at room temperature for 2 days.
We studied the efficiency of Oxamyl; 200 ug/ml and 100 ug/ml in suppression of J2. […] We used 100 ug of Oxamyl in subsequent studies with liposomes.

[4] = test system: root-knot nematodes; test: Nematicidal activity of Oxamyl-liposome formulation on root-knot nematodes; format: in vivo, M. incognita; conditions: where oxamyl was added (oxamyl-liposome test, FIG. 1)
Description: Liposomes having an aqueous core and phospholipid bilayers were prepared using the thin-film dehydration-rehydration method obtaining, multilamilar vesicles (MLVs) and small unilamellar vesicles (SUVs) (Bangham et al., J. Mol. Biol. 13:238-252 (1965); Gosangari & Watkin, Pharm Dev Technol. 17:383-8 (2012)). Using thin-film hydration method, briefly, required amounts of lipids [1,2-Dipalmitoyl-sn-glycero-3-phosphocholine (DPPC) liposomes and 1, 2-distearoyl-snglycero- 3-phosphocholine (DSPC)] were dissolved in chloroform, and a thin film will be formed on the inner side of the round bottom flask, by evaporating the solvent under vacuum using a rotavapor. The lipid film formed was stored overnight in vacuum desiccator to eliminate traces of chloroform. The film was then hydrated at 58° C., above the Tc of DSPC, using 10 mL of phosphate-buffered saline (PBS, 20 mM […], 150 mM NaCl, pH 7.0) containing different concentration of Oxamyl. […] The unencapsulated oxamyl was then separated using Sephadex G-50 macrospin columns and the encapsulation efficiency was calculated spectrophotometrically at 280 nm. […]
M. incognita eggs collected from tomato cultures by NaOC1 extraction (Hussey & Barker, Plant Disease Reporter. 57:1025-1028 (1973)). […] The juveniles (J2) were counted and evaluated for activity/mobility for the duration of the study. […]

[5] = Abamectin or liposomal abamectin applied to soil prior to planting: gall formation, root necrosis, root length; format: in vivo
Description: Abamectin at 5μg or 1μg was directly applied to soil prior to planting. Alternatively abamectin was loaded into liposomes at either 5μg or 1 μg and applied to soil prior to planting. Gall formation was detected. […] Therefore, liposomal abamectin formulations enhance root length as compared to non-liposomal abamectin formulations.

[6] = test system: nematode; conditions: comparison figure; cited from earlier work

Compound: BrCCBr [EDB, ethylene dibromide]
- population killed [1]: 75%
- survival [2]: did not survive

Compound: CS/C(C)=N\OC(=O)N(C)SN(C)C(=O)O/N=C(\C)SC [Larvin (Thiodicarb), Thiodicarb]
- Root-Knot larvae (J2) Alive ([3]; 200 ug): 76 and 86 and 89
- Root-Knot larvae (J2) Dead ([3]; 200 ug): 23 and 14 and 11
- Root-Knot larvae (J2) Alive ([3]; 1 mg): 75 and 82 and 63
- Root-Knot larvae (J2) Dead ([3]; 1 mg): 25 and 18 and 37
- Root-Knot larvae (J2) Alive ([3]; 2 mg): 70 and 85 and 65
- Root-Knot larvae (J2) Dead ([3]; 2 mg): 30 and 15 and 35
- Root-Knot larvae (J2) Alive, non-mobile ([3]; 10 mg): 70 non-mobile and 80 non-mobile
- Root-Knot larvae (J2) Dead ([3]; 10 mg): 30 (2×) and 20
- concentration required to kill Root-Knot (J2) ([3]; compared with Oxamyl, reason for elimination): required higher concentration to kill Root-Knot (J2)

Compound: CNC(=O)O/N=C(\SC)C(=O)N(C)C [Oxamyl (Vydate), Methyl N′N′-dimethyl-N-[(methylcarbamoyl)oxy]-1-thiooxamimidate]
- Root-Knot larvae (J2) Alive, non-mobile ([3]; 200 ug): 60 non-mobile and 58 non-mobile and 50 non-mobile
- Root-Knot larvae (J2) Dead ([3]; 200 ug): 40 and 42 and 50
- Root-Knot larvae (J2) Alive ([3]; 1 mg): 0
- Root-Knot larvae (J2) Dead ([3]; 1 mg): 100
- Root-Knot larvae (J2) Alive ([3]; 2 mg): 0
- Root-Knot larvae (J2) Dead ([3]; 2 mg): 100
- Root-Knot larvae (J2) Alive ([3]; 10 mg): 0
- Root-Knot larvae (J2) Dead ([3]; 10 mg): 100
- mortality at 100 µg/mL ([3]; Meloidogyne incognita, 100 ug/ml): 100%
- mortality at 200 µg/mL ([3]; Meloidogyne incognita, 200 ug/ml): 100%
- state of larvae [4]: dead or paralyzed

Compound: abamectin [non-liposomal abamectin]
- gall formation ([5]; 1 μg applied to soil prior to planting, FIG. 3): most gall formulation
- root necrosis ([5]; 5 μg applied to soil prior to planting, FIG. 4): most root necrosis
- amount of abamectin needed to treat nematodes when not encapsulated by liposomes [6]: about 2982 mg/acre
